In ChEMBL document CHEMBL1201862, “PubChem BioAssay data set” (2004):
The source made the active and inactive calls.

Experiments:
[1] = target: Heat shock protein HSP 90-alpha (Homo sapiens, UniProt P07900); type: functional, organism-based
[2] = target: T1, RNA-binding protein pos-1 (Caenorhabditis elegans, UniProt G5EF15); test: inhibitors of POS-1/mex-3 RNA binding, dose response, biochemical, fluorescence polarization (AID 1964);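 further: purified POS-1 fused to maltose binding protein made in E. coli; potency of compounds blocking POS-1 binding to fluorescent RNA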
T1 sequence (G5EF15 whole entry): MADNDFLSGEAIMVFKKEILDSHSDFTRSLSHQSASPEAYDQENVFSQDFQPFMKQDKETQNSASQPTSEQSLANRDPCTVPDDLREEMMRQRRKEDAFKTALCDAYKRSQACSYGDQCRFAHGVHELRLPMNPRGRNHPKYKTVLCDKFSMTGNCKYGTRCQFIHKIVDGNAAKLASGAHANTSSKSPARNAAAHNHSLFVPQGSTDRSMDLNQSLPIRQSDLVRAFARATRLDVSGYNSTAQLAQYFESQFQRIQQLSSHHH

[3] = target: T2, Zinc finger protein mex-5 (Caenorhabditis elegans, UniProt Q9XUB2); test: MEX-5/TCR-2 RNA interaction inhibitors, dose response, biochemical, C. elegans, fluorescence polarization (AID 1960)
T2 sequence (Q9XUB2 whole entry): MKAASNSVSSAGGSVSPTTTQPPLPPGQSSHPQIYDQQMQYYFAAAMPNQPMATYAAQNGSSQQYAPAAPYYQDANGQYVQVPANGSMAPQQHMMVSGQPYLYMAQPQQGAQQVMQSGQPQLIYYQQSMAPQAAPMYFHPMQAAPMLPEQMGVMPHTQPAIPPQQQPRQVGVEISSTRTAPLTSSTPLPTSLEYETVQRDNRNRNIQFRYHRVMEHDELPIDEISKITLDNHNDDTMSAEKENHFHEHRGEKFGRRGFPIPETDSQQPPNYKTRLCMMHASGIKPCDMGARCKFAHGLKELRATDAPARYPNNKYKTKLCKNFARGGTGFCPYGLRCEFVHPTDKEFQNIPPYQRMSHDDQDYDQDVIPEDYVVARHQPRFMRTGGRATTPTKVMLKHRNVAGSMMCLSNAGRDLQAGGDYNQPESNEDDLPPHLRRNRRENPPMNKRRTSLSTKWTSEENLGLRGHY

[4] = growth suppression of PTEN-null colon cells, dose response, cell-based, HCT116 PTEN knockout (AID 1047); type: functional;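 further: HCT116 colon tumor cells with PTEN knocked out; cells exposed to compound for 60 hours before readout; potency for loss of cell viability measured by luminescence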
[5] = growth suppression of beta-catenin-knockout colon cells, dose response, cell-based, HCT116, human colon tumor (AID 1045); type: functional;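 further: HCT116 colon tumor cells with beta catenin knocked out; cells exposed to compound for 60 hours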
[6] = target: Nonstructural protein 1 (Influenza A virus, UniProt Q194T2); type: functional, Influenza A virus (A/California/07/2009(H1N1))
Sequence of Nonstructural protein 1 (Q194T2 whole entry): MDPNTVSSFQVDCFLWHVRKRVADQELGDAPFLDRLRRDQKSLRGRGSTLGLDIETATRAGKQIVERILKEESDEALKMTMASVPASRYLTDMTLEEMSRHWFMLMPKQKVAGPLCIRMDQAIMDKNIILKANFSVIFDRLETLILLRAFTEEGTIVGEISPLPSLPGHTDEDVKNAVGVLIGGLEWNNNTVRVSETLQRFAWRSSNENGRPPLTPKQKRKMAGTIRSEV

[7] = target: T3, Protein skinhead-1 (Caenorhabditis elegans, UniProt P34707); type: functional
T3 sequence (P34707 whole entry): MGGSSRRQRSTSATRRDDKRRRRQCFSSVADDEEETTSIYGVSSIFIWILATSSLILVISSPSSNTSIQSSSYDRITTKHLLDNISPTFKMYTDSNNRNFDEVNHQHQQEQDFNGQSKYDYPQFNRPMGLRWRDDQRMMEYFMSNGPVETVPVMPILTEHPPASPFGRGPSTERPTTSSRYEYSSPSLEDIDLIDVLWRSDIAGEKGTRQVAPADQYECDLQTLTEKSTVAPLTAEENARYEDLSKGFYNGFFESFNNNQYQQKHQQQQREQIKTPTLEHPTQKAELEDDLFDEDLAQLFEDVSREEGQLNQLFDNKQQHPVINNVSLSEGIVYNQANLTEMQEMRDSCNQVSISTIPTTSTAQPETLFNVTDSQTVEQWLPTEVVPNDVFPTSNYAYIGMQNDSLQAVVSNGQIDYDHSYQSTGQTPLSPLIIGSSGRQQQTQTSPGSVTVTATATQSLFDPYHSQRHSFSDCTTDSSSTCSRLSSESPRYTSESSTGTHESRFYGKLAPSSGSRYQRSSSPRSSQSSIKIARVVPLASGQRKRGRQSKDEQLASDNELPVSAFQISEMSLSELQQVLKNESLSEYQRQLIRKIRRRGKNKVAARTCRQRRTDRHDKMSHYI

[8] = target: T4, Polyadenylate-binding protein 1 (Homo sapiens, UniProt P11940); test: PABP1 MLLE–PAM2 interaction inhibitors, dose response, miRNA deadenylation inhibitor project, biochemical, fluorescence polarization, Cy5-PAM2 peptide, secondary (AID 602260); type: functional; settings: read-out: IC50_Mean
T4 sequence (P11940 whole entry): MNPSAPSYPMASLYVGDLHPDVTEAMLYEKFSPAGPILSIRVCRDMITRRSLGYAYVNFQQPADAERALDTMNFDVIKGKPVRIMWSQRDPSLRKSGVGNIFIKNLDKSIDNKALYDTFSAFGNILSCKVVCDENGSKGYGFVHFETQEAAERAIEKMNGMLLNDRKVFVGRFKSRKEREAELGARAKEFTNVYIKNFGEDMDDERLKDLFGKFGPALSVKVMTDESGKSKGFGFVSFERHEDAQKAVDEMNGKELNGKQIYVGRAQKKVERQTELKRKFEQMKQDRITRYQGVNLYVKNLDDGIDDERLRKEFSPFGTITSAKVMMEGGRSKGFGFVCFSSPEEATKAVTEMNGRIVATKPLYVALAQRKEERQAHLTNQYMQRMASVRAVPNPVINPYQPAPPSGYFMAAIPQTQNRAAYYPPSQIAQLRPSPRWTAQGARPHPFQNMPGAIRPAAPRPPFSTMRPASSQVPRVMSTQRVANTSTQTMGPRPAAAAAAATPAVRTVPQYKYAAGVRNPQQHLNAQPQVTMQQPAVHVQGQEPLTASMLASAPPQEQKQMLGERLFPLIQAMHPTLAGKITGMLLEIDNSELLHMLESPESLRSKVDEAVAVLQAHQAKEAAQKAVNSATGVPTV

[9] = target: T4, Polyadenylate-binding protein 1; test: PABP1 MLLE–PAM2 binding inhibitor potency, dose response, biochemical, fluorescence polarization, FITC-PAM2 peptide (AID 602259); type: functional; settings: read-out: IC50_Mean
[10] = test system: Streptococcus; test: Group A Streptococcus viability loss, dose response, counter-screen for streptokinase expression inhibitor project, luminescence, BacTiterGlo (AID 1915); type: functional, organism-based;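 further: potency for reduction of bacterial viability or growth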
[11] = target: T5, Streptokinase A (Streptococcus pyogenes serotype M1, UniProt P10520); test: S. pyogenes streptokinase expression inhibitors, potency, dose response, plasminogen activation absorbance, OD405 (AID 1914); type: functional, Streptococcus pyogenes M1 GAS;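 further: secreted streptokinase activity via plasminogen activation per viability signal from cell pellet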
T5 sequence (P10520 whole entry): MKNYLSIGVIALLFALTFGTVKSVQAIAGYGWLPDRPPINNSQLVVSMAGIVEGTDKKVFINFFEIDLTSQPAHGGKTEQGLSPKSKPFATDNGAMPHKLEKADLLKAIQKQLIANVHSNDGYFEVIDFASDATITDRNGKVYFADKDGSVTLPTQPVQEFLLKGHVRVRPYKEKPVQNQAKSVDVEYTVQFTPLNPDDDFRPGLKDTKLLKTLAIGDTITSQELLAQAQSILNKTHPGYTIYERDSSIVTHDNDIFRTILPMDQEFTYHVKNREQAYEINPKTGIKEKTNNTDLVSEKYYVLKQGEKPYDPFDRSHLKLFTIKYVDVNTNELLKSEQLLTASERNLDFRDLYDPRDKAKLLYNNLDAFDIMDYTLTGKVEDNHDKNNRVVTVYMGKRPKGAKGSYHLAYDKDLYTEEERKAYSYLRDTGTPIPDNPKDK

[12] = test system: Streptococcus sp. 'group A'; test: growth inhibition of control SK(-) GAS strain, dose response, counter-screen for streptokinase expression inhibitor project, luminescence, kanamycin, BacTiterGlo, confirmation (AID 1900); type: functional, organism-based
[13] = target: Paired box protein Pax-8 (Homo sapiens, UniProt Q06710); test: inhibitors of PAX8-driven TPO luciferase reporter, dose response, RMG-I cells, cherry-pick (AID 687027); type: functional, cell-based;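 further: luciferase reporter driven by Pax8 target thyroperoxidase promoter measured by SteadyGlo luminescence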
Sequence of Paired box protein Pax-8 (Q06710 whole entry): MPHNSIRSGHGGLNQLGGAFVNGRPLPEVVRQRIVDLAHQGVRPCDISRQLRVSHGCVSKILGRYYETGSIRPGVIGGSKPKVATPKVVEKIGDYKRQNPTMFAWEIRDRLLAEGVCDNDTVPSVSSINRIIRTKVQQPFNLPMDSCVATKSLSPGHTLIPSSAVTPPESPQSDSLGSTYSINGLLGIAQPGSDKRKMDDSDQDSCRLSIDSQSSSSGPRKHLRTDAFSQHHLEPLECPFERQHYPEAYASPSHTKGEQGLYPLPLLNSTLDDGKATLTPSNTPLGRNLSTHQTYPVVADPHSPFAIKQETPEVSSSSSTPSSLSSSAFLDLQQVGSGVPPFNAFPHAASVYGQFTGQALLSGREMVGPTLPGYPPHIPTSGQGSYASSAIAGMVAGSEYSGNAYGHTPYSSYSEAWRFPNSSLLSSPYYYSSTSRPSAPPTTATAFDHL

With `O=S(=O)(/C=C/c1ccccc1)NC1CCCCCCC1` the AC50 [1] was 24.7 µM (active).

In the case of `CN(CC(=O)NCc1ccccn1)S(=O)(=O)c1ccc(Br)cc1`, the EC50 [2] is reported as > 300 µM (not active) and the EC50 [3] is reported as > 300 µM (not active).

For `CCOC(=O)c1c(NC(=O)C2CCCN(S(=O)(=O)c3ccccc3)C2)sc2c1CCCC2` (stereo not drawn), the EC50 [4] was 50.9 µM (active) and the EC50 [5] was 73.3 µM (active).

For `COc1ccc(Cl)cc1NC(=O)CSc1ncnc2c1oc1ccccc12`, the EC50 [4] was 4.25 µM (active) and the EC50 [5] was 6.22 µM (active).

For `Cc1c(N=NC2=C(O)CCCC2=O)c(=O)n(-c2ccccc2)n1C`, the IC50 [6] was 2.9 µM (active).

In the case of `CCCOc1ccc(N2C(=O)CC(N(CCc3ccc(OC)cc3)C(=O)c3cccc(F)c3)C2=O)cc1` (stereo not drawn), the IC50 [7] is reported as > 100 µM (inactive).

For `Cc1cc(C2=NN=C(NC3CC3)SC2)c(C)n1-c1ccccc1`, the EC50 [4] was 23.7 µM (active) and the EC50 [5] was 19.5 µM (active).

With `COCCN1CCC(CNCc2c[nH]nc2-c2ccc(C)c(C)c2)C1` (stereo not drawn) the EC50 [2] was > 300 µM (not active) and the EC50 [3] was > 300 µM (inconclusive).

For `CCOC(=O)c1ccccc1N1C(=O)CSC1=S`, the IC50 [8] was > 66 µM (inactive) and the IC50 [9] was > 66 µM (inactive).

In the case of `CCCCn1c(NC(=S)Nc2ccccc2)nc2ccccc21`, the IC50 [8] is reported as > 66 µM (inactive) and the IC50 [9] is reported as > 66 µM (inactive).

In the case of `COc1cccc(CNC(=O)CSc2ccc(-c3ccccn3)nn2)c1`, the IC50 [6] is reported as 20.6 µM (active).

For `CCOc1ccccc1NC(=O)Cn1c(=O)oc2cc(Cl)ccc21`, the IC50 [7] was > 100 µM (inactive).

For `O=C(COC(=O)CCNS(=O)(=O)c1ccccc1)Nc1ccc(OC(F)F)cc1`, the IC50 [7] was > 100 µM (inactive).

With `O=C(N/N=C/c1c[nH]c2ccccc12)c1[nH]c2ccc(Br)cc2c1-c1ccccc1` the EC50 [10] was 2.22 µM (active), the EC50 [11] was > 150 µM (not active) and the EC50 [12] was 1.29 µM (active). For the same molecule, the AC50 [13] was 3.5 µM (active), the EC50 [4] was 0.412 µM (active) and the EC50 [5] was 0.378 µM (active).

For `COC(=O)c1ccc(-n2c(C)cc(/C=N/Nc3nc(C)cc(O)n3)c2C)cc1`, the EC50 [2] was > 300 µM (not active) and the EC50 [3] was > 300 µM (not active).

With `O=C(NCc1ccncc1)C(=O)N/N=C/c1ccccn1` the EC50 [2] was 86.1 µM (active) and the EC50 [3] was 24.2 µM (active).

For `Cc1nn(-c2ccccc2)c(N2CCCC2)c1/C=N/Nc1ccc(S(=O)(=O)Nc2ccccc2)cc1[N+](=O)[O-]`, the EC50 [4] was 6.74 µM (active) and the EC50 [5] was 9.37 µM (active).

In the case of `O=[N+]([O-])c1ccc(N/N=C2\CC3CC=CC23)c([N+](=O)[O-])c1` (stereo not drawn), the IC50 [6] is reported as 35.3 µM (active).
